From ChEMBL document CHEMBL5154874, “Discovery of novel dual RAGE/SERT inhibitors for the potential treatment of the comorbidity of Alzheimer's disease and depression” (Eur J Med Chem, 2022)
The source made the active and inactive calls. The calls are words filed in the database; no cut-off is given here.

Assays:
[1] = test system: SH-SY5Y; experiment: Cytotoxicity against human SH-SY5Y cells assessed as cell death at 5 uM incubated for 24 hrs by MTT assay; type: toxicity, cell-based
[2] = test system: SH-SY5Y; experiment: Cytotoxicity against human SH-SY5Y cells assessed as reduction in cell viability at 10 to 20 uM incubated for 24 hrs by MTT assay; type: toxicity, cell-based; conditions: dose 10-20 µM
[3] = Toxicity in ICR mouse assessed as change in brain to body weight ratio at 100 mg/kg, ip administered as single dose and measured after 2 weeks; type: organism-based; conditions: in vivo, 336 h
[4] = test system: SH-SY5Y; experiment: Cytotoxicity against human SH-SY5Y cells assessed as effect on cell viability at 1 to 10 uM incubated for 24 hrs by MTT assay; type: toxicity, cell-based; conditions: dose 1-10 µM
[5] = Cytotoxicity against human SH-SY5Y cells assessed as cell viability at 20 uM incubated for 24 hrs by MTT assay relative to control; type: toxicity, cell-based; conditions: read-out: Activity
[6] = Toxicity in ICR mouse assessed as animal survival at 100 mg/kg, ip administered as single dose measured upto 2 weeks; type: organism-based; conditions: in vivo
[7] = Toxicity in ICR mouse assessed as animal survival at 200 mg/kg, ip administered as single dose measured upto 2 weeks; type: organism-based; conditions: in vivo, 336 h
[8] = Toxicity in ICR mouse assessed as change in liver to body weight ratio at 100 mg/kg, ip administered as single dose and measured after 2 weeks; type: organism-based; conditions: in vivo, 336 h
[9] = biological target: Voltage-gated inwardly rectifying potassium channel KCNH2 (Homo sapiens, UniProt Q12809); experiment: Inhibition of hERG transfected in CHO cells by manual patch-clamp assay; type: toxicity, cell-based
Chain of Voltage-gated inwardly rectifying potassium channel KCNH2 (Q12809 whole entry): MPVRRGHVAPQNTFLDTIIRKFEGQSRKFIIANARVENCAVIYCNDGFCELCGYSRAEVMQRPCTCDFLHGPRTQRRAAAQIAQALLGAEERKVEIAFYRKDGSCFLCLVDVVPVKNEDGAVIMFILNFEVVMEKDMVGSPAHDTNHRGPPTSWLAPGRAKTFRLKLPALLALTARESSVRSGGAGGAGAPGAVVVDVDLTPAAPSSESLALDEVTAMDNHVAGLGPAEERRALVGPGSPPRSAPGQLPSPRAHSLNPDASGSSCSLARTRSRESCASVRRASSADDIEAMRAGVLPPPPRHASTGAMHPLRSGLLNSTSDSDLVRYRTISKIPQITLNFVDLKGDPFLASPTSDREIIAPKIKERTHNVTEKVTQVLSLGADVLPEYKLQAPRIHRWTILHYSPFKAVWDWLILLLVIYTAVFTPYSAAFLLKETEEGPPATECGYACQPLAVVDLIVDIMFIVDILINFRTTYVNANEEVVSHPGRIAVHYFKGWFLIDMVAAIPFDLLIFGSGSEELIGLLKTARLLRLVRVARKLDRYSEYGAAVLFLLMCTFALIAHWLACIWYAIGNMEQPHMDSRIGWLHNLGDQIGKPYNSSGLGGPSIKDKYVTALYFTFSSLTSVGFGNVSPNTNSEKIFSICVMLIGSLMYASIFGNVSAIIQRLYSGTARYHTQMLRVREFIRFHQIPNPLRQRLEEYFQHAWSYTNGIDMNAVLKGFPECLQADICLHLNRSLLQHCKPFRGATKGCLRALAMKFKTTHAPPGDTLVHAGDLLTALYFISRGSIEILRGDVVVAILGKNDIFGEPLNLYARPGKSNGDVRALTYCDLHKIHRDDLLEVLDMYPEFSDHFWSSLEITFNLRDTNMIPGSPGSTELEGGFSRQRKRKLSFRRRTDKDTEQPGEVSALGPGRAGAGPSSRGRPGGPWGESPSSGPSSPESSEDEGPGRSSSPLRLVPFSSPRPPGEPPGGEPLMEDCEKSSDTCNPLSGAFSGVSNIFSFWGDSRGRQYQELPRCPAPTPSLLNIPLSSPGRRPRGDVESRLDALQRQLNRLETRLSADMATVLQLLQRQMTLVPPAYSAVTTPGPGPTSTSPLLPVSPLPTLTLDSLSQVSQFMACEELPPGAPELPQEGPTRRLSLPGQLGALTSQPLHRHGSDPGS

[10] = Metabolic stability in mouse liver microsomes assessed as half life at 100 uM in presence of NADPH and measured for 5 to 60 mins by LC-MS/MS analysis; type: ADME, Microsome; conditions: time 5-60 min
[11] = Metabolic stability in mouse liver microsomes assessed as clearance at 100 uM in presence of NADPH and measured for 5 to 60 mins by LC-MS/MS analysis; type: ADME, Microsome; conditions: time 5-60 min, read-out: CLH
[12] = biological target: T1, CYP1A2 (Homo sapiens, UniProt P05177); experiment: Inhibition of CYP1A2 in human liver microsomes at 10 uM incubated for 10 mins in presence of NADPH by LC-MS/MS analysis relative to control; type: ADME, Microsome
T1 sequence (P05177 whole entry): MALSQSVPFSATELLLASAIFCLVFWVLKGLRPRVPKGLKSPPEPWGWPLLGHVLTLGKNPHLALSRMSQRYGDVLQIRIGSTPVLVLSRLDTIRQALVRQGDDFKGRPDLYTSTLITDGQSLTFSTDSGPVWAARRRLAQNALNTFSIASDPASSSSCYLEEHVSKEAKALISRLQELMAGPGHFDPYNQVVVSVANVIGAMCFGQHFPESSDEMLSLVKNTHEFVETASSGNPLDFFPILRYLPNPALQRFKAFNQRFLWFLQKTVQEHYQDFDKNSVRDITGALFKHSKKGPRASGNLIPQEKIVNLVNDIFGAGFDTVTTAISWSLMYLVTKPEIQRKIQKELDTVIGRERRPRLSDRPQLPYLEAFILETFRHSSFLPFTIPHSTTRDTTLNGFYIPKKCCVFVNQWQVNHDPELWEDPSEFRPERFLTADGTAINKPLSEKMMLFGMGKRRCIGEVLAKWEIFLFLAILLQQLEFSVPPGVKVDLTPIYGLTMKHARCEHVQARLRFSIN

[13] = biological target: CYP2C9 (Homo sapiens, UniProt P11712); experiment: Inhibition of CYP2C9 in human liver microsomes at 10 uM incubated for 10 mins in presence of NADPH by LC-MS/MS analysis relative to control; type: ADME, Microsome
Chain of CYP2C9 (P11712 whole entry): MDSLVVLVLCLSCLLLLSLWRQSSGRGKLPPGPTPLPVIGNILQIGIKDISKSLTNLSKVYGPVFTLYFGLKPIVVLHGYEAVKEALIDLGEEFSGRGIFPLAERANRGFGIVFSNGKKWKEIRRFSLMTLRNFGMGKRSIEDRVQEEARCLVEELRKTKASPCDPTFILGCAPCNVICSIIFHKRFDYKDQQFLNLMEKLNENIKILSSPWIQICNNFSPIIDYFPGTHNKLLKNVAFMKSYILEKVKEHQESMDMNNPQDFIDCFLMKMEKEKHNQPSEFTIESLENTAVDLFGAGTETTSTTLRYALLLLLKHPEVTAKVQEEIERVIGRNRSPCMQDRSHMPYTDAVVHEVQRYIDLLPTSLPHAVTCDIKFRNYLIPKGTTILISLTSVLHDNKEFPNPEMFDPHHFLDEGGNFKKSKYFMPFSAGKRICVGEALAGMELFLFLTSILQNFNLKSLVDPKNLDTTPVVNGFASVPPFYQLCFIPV

[14] = biological target: CYP2C19 (Homo sapiens, UniProt P33261); experiment: Inhibition of CYP2C19 in human liver microsomes at 10 uM incubated for 10 mins in presence of NADPH by LC-MS/MS analysis relative to control; type: ADME, Microsome
Chain of CYP2C19 (P33261 whole entry): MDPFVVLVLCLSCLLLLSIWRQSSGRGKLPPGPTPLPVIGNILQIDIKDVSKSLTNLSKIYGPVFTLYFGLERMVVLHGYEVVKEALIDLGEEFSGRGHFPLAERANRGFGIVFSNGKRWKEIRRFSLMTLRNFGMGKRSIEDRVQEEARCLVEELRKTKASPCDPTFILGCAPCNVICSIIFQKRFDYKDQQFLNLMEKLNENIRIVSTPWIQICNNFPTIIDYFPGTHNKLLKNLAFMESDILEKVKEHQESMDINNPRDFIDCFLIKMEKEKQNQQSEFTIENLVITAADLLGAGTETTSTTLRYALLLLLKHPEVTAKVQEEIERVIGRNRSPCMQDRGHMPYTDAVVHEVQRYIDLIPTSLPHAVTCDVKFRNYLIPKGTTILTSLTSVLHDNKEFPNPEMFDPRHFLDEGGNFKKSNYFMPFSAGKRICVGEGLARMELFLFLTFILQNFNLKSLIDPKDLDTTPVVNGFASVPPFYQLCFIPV

[15] = biological target: CYP3A4 (Homo sapiens, UniProt P08684); experiment: Inhibition of CYP3A4 in human liver microsomes at 10 uM incubated for 10 mins in presence of NADPH by LC-MS/MS analysis relative to control; type: ADME, Microsome
Chain of CYP3A4 (P08684 whole entry): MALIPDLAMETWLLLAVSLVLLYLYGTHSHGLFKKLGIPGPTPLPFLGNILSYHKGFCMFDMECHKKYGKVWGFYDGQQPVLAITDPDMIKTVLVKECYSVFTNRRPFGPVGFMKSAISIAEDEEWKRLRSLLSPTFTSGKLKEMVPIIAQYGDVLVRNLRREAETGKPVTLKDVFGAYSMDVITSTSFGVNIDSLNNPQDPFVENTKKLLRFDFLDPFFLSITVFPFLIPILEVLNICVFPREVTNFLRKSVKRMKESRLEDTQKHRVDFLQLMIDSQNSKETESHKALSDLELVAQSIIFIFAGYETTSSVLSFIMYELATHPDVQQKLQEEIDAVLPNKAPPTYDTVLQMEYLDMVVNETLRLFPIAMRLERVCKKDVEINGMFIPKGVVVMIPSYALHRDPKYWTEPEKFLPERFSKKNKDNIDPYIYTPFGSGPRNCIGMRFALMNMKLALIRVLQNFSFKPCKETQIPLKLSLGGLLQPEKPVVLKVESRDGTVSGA

[16] = test system: Mus musculus; experiment: Anti-depressant activity in ICR mouse assessed as reduction in immobility time at 60 mg/kg, po measured after 1 hr post treatment by tail suspension test; type: functional, organism-based
[17] = Half life in mouse at 60 mg/kg, po measured for 0.25 to 24 hrs; type: ADME, organism-based; conditions: in vivo, time 0.25-24 hrs
[18] = Cmax in mouse at 60 mg/kg, po measured for 0.25 to 24 hrs; type: ADME, organism-based; set-up: time 0.25-24 hrs, dose 60 mg/kg, route po; conditions: in vivo
[19] = AUC (0 to infinity) in mouse at 60 mg/kg, po measured for 0.25 to 24 hrs; type: ADME, organism-based; set-up: time lower 0.25 hrs, dose 60 mg/kg, time upper 24 hrs, route po; conditions: in vivo
[20] = Oral bioavailability in mouse at 60 mg/kg measured for 0.25 to 24 hrs; type: ADME, organism-based; conditions: in vivo, time 0.25-24 hrs
[21] = Half life in mouse at 10 mg/kg, iv measured for 0.083 to 24 hrs; type: ADME, organism-based; conditions: in vivo, time 0.083-24 hrs
[22] = Cmax in mouse at 10 mg/kg, iv measured for 0.083 to 24 hrs; type: ADME, organism-based; set-up: time lower 0.083 hrs, dose 10 mg/kg, time upper 24 hrs, route iv; conditions: in vivo
[23] = AUC (0 to infinity) in mouse at 10 mg/kg, iv measured for 0.083 to 24 hrs; type: ADME, organism-based; set-up: dose 10 mg/kg, time 0.083-24 hrs, route iv; conditions: in vivo
[24] = Clearance in mouse at 10 mg/kg, iv measured for 0.083 to 24 hrs; type: ADME, organism-based; conditions: in vivo, time 0.083-24 hrs
[25] = Volume of distribution at steady state in mouse at 10 mg/kg, iv measured for 0.083 to 24 hrs; type: ADME, organism-based; conditions: in vivo, time 0.083-24 hrs, read-out: Vdss
[26] = Toxicity in ICR mouse assessed as change in heart to body weight ratio at 100 mg/kg, ip administered as single dose and measured after 2 weeks; type: organism-based; conditions: in vivo, 336 h
[27] = Toxicity in ICR mouse assessed as change in spleen to body weight ratio at 100 mg/kg, ip administered as single dose and measured after 2 weeks; type: organism-based; conditions: in vivo, 336 h
[28] = Toxicity in ICR mouse assessed as change in lungs to body weight ratio at 100 mg/kg, ip administered as single dose and measured after 2 weeks; type: organism-based; conditions: in vivo, 336 h
[29] = Toxicity in ICR mouse assessed as change in kidney to body weight ratio at 100 mg/kg, ip administered as single dose and measured after 2 weeks; type: organism-based; conditions: in vivo, 336 h
[30] = Metabolic stability in mouse liver microsomes assessed as parent compound remaining in presence of NADPH and measured after 60 mins by LC-MS/MS analysis
[31] = biological target: Advanced glycosylation end product-specific receptor (Homo sapiens, UniProt Q15109); experiment: Inhibition of biotinylated human RAGE/amyloid beta interaction incubated for 120 mins by ELISA assay
Chain of Advanced glycosylation end product-specific receptor (Q15109 whole entry): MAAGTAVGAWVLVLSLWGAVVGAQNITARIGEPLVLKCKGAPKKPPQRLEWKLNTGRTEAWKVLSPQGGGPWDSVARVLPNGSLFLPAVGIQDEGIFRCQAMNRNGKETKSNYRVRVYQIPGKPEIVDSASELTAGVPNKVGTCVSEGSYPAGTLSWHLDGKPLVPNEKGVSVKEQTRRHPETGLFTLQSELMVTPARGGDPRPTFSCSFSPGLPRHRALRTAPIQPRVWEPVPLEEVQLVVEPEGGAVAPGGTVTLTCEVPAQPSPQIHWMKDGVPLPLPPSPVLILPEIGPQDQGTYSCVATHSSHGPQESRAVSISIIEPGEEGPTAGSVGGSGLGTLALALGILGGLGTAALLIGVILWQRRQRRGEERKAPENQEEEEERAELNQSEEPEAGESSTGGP

[32] = biological target: Sodium-dependent serotonin transporter (Homo sapiens, UniProt P31645)
Chain of Sodium-dependent serotonin transporter (P31645 whole entry): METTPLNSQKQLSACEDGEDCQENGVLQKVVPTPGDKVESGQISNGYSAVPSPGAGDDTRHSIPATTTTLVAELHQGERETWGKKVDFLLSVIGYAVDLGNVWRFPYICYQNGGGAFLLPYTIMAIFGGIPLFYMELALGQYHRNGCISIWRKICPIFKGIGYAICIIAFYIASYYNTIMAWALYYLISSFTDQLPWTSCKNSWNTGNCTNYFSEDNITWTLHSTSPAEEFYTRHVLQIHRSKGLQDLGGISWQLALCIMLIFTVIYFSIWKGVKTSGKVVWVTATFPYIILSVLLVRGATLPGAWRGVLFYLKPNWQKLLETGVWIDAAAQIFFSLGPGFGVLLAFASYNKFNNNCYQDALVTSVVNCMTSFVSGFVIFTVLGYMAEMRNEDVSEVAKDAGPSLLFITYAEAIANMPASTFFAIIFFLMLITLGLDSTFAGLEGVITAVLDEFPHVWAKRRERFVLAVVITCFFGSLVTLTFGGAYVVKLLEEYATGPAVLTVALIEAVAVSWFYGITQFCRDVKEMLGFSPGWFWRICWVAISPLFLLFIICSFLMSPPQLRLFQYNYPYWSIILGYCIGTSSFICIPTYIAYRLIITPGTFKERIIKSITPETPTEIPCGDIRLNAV

[33] = Cytotoxicity against human SH-SY5Y cells assessed as cell viability at 5 uM incubated for 24 hrs by MTT assay relative to control; type: toxicity, cell-based; conditions: read-out: Activity
[34] = test system: Mus musculus; experiment: Anti-depressant activity in ICR mouse assessed as reduction in immobility time at 30 mg/kg, po measured after 1 hr post treatment by tail suspension test; type: functional, organism-based

CCCCc1nc(C2CCN(Cc3c[nH]c4ccc(C#N)cc34)CC2)cn1-c1ccc(Oc2ccc(Cl)cc2)cc1
Activity [1]: Toxic
Activity [2]: Toxic

CCCCc1sc(C2CCN(CCCCc3cn(C)c4ccc(C#N)cc34)CC2)nc1-c1ccc(Oc2ccc(Cl)cc2)cc1
Activity [3]: Non-Toxic
Activity [4]: Non-Toxic
viability at 24 h, 20 µM [5]: > 80%
survival at 336 h [6]: 100%
Activity [7]: Toxic
Activity [8]: Non-Toxic
IC50 [9]: 7.2 µM
half-life at 100 µM [10]: 1.31 h
microsomal CLint at 100 µM [11]: 17.6 µL/min/mg
inhibition at 10 min, 10 µM [12]: 17.2%
inhibition at 10 min, 10 µM [13]: 8.6%
inhibition at 10 min, 10 µM [14]: 23.7%
inhibition at 10 min, 10 µM [15]: 16.3%
Activity [16]: Active
half-life [17]: 5.55 h
Cmax [18]: 4940 ng/mL
AUC(0-inf) [19]: 24700 ng·h/mL
bioavailability [20]: 17.1%
half-life [21]: 3.46 h
Cmax [22]: 51700 ng/mL
AUC(0-inf) [23]: 23700 ng·h/mL
clearance [24]: 7.09 mL/min/kg
Vd [25]: 1.04 L/kg
Activity [26]: Non-Toxic
Activity [27]: Non-Toxic
Activity [28]: Non-Toxic
Activity [29]: Non-Toxic

CCCCc1sc(C2CCN(CCCCc3c[nH]c4ccc(C#N)cc34)CC2)nc1-c1ccc(Oc2ccc(Cl)cc2)cc1
Activity [1]: Non-Toxic
Activity [2]: Toxic

CCCCCc1nc(C2CCN(CCCCc3cn(C)c4ccc(C#N)cc34)CC2)cn1-c1ccc(Oc2ccc(Cl)cc2)cc1
Activity [1]: Toxic
Activity [2]: Toxic

C[C@]12CC[C@H]3[C@@H](CCC4=CC(=O)CC[C@@]43C)[C@@H]1CC[C@@H]2O [TESTOSTERONE]
remaining at 1 h [30]: 2.2%

CCCCc1sc(C2CCN(CCc3c[nH]c4ccc(C#N)cc34)CC2)nc1-c1ccc(Oc2ccc(Cl)cc2)cc1
IC50 [31]: > 20 µM
IC50 [32]: > 0.1 µM

CCc1nc(C2CCN(CCCCc3c[nH]c4ccc(C#N)cc34)CC2)cn1-c1ccc(Oc2ccc(Cl)cc2)cc1
Activity [1]: Toxic
Activity [2]: Toxic

CCN(CC)CCOc1cccc(Nc2nc(-c3ccc(Cl)cc3)cc(-c3ccc(Cl)cc3)n2)c1
IC50 [31]: 10.5 µM

CCCCc1nc(C2CCN(CCCCc3c[nH]c4ccc(C#N)cc34)CC2)cn1-c1ccc(Oc2ccc(Cl)cc2)cc1
viability at 24 h, 5 µM [33]: 4.82%
Activity [1]: Toxic
Activity [2]: Toxic

N#Cc1ccc2[nH]cc(CCCCN3CCN(c4ccc5oc(C(N)=O)cc5c4)CC3)c2c1 [VILAZODONE]
IC50 [31]: > 200 µM
half-life at 100 µM [10]: 0.468 h
microsomal CLint at 100 µM [11]: 49.3 µL/min/mg
inhibition at 10 min, 10 µM [12]: 14.4%
inhibition at 10 min, 10 µM [13]: 49.2%
inhibition at 10 min, 10 µM [14]: 51.3%
inhibition at 10 min, 10 µM [15]: 29%
Activity [34]: Active

CCCCc1nc(C2CCN(CCc3c[nH]c4ccc(C#N)cc34)CC2)cn1-c1ccc(Oc2ccc(Cl)cc2)cc1
IC50 [31]: > 20 µM
IC50 [32]: > 0.1 µM

N#Cc1ccc2[nH]cc(CCCCN3CCC(c4cn(-c5ccc(Oc6ccc(Cl)cc6)cc5)c(C5CCC5)n4)CC3)c2c1
Activity [1]: Toxic
Activity [2]: Toxic

CCCCc1nc(-c2ccc(OCCCN(CC)CC)cc2)cn1-c1ccc(Oc2ccc(Cl)cc2)cc1 [AZELIRAGON]
Activity [1]: Toxic
IC50 [9]: < 1 µM
half-life at 100 µM [10]: 1.55 h
microsomal CLint at 100 µM [11]: 14.9 µL/min/mg
inhibition at 10 min, 10 µM [12]: 0%
inhibition at 10 min, 10 µM [13]: 3.7%
inhibition at 10 min, 10 µM [14]: 7.9%
inhibition at 10 min, 10 µM [15]: 0%
IC50 [32]: > 3 µM

CCCc1nc(C2CCN(CCCCc3c[nH]c4ccc(C#N)cc34)CC2)cn1-c1ccc(Oc2ccc(Cl)cc2)cc1
Activity [1]: Toxic
Activity [2]: Toxic
